Results from patent US9993436B2, “Porous hollow fiber anti-solvent crystallization-based continuous method of polymer coating on submicron and nanoparticles” (New Jersey Institute of Technology, priority 2014, dated 2018).
Values after ≈ are worked out from the molar mass of the structure shown.

What was measured:
[1] = cited from earlier work
physchem = test: physchem
From the text: Eudragit RL 100 (Mw, 150,000; a copolymer of methyl methacrylate, ethyl acrylate and methacrylic acid ester) from Evonik-Degussa (Parsippany, N.J.) was employed as the coating polymer. Drug particles of Griseofulvin (GF) from Letco (Decatur, Ala.) were used without further treatment. […] Sodium dodecyl sulfate (SDS) was used as a surfactant (Sigma-Aldrich). Deionized water was used as the tube side anti-solvent liquid. The Nylon 6 hollow fibers were obtained from ENKA America Inc. (Asheville, N.C.).

[2] = Particle size distribution by laser diffraction particle size analyzer; type: physicochemical
Method: A laser diffraction particle size analyzer (LS230, Beckman Coulter, Brea, Calif.) was used to identify the extent of particle agglomeration. An aqueous micron-size suspension of the particle sample was prepared after 30 s of sonication to break the soft bonding between particles. After that a few drops of the suspension were introduced in the inlet of the instrument for analysis.
Residence time plays an important role in the PHFAC process since precipitation of both the polymer and the drug can be affected by the variation of residence time in the shell side of the module. Residence time can be simply altered by changing the shell-side feed solution flow rate. To identify the influence of the feed solution flow rate on the particle size distribution (PSD) of GF crystals, the solution containing the dissolved drug without any polymer was passed through the PHFAC module at different rates. The particle size distribution will be affected by the extent of supersaturation created and the rate at which supersaturation is created. Both are influenced by the rate at which the anti-solvent is introduced from the tube side to the shell side for a given feed solution flow rate.
Since one of the objectives of the study is to understand the impact of this novel PHFAC coating technique on the synthesized drug particles, the as-received uncoated GF particles and the Eudragit-coated GF particles obtained from the PHFAC were selected for particle size distribution analysis. A suspension of the samples in water was carefully dropped into the inlet of the laser diffraction particle size analyzer. The median size of the uncoated GF sample (11.6 μm) was close to the manufacturer's specification (10 μm). After polymer coating, the median size of the coated drug particles increased to 19.2 μm. One reason for the median size increase is obviously due to the coating which increases the particle size. Another reason is that the coating of GF by the polymer brings in a certain amount of agglomeration. Attachment of neighboring coated drug particles will take place due to the sticking tendency of the polymer-formed liquid bridges.
A laser diffraction particle size analyzer (LS 230, Beckman Coulter, Brea, Calif.) was used to determine the particle size distribution. An aqueous particle suspension of the particle sample was prepared by introducing the dry sample powder into DI water and sonicating it for about 30 seconds to break the soft bonding.

[3] = Dissolution test, USP II paddle method, UV at 296 nm; type: physicochemical; settings: up to 50 minutes; 0.27% SDS solution 900 mL, 37° C., paddle 50 rpm; FIG. 8
Method: Dissolution tests for the uncoated and coated Griseofulvin particles were determined via a Distek dissolution tester (North Brunswick, N.J.). According to the USP II paddle method, 0.27% of SDS solution with 900 mL volume was added into the vessel as a buffer solution. Temperature of the medium was maintained at 37° C. and a paddle stirring speed of 50 rpm was used. The sample used was equivalent to a dose of 35 mg of GF, and dropped into a dissolution vessel containing the buffer solution. Samples having a volume of 6 mL were taken out at 1, 3, 5, 10, 20, 30, 40, 50 and 80 min and immediately analyzed by UV spectroscopy (52100UV+, Cole-Parmer, Vernon Hills, Ill.) at a wavelength of 296 nm. As a blank benchmark for the test, a 0.27% SDS buffer solution was measured first.
To illustrate the advantages of a coated drug for controlled release, dissolution tests were performed on three samples: as-received drug, uncoated drug, and polymer-coated drug.

[4] = drug crystals from PHFAC module without any polymer in the feed solution, various shell/tube side flow rates

Row | SMILES | solubility in water (physchem) | solubility (physchem; organic solvent or mixture) [mM] | Median size ([2]; suspension in water, FIG. 4) [μm] | Median size [2, 4] [μm] | d10 [2, 4] [μm] | d90 [2, 4] [μm] | dissolution profile (comparison of curves) [3] | median size, manufacturer's specification [1] [μm]
1 | COC1=CC(=O)C[C@@H](C)[C@]12Oc1c(Cl)c(OC)cc(OC)c1C2=O [GF, Griseofulvin] | practically insoluble | 116 (≈ 40.9 mg/mL) | 11.6 |  |  |  |  | 10
2 | COC1=CC(=O)C[C@@H](C)[C@]12Oc1c(Cl)c(OC)cc(OC)c1C2=O [X0, Griseofulvin] |  |  |  | 1.617 | 1.001 | 2.219 |  | 
3 | COC1=CC(=O)C[C@@H](C)[C@]12Oc1c(Cl)c(OC)cc(OC)c1C2=O [X1, Griseofulvin] |  |  |  | 7.333 | 4.977 | 15.29 |  | 
4 | COC1=CC(=O)C[C@@H](C)[C@]12Oc1c(Cl)c(OC)cc(OC)c1C2=O [X2, Griseofulvin] |  |  |  | 11.83 | 2.117 | 30.30 |  | 

More lines, main results first:

Row | solubility in water (physchem) | solubility (physchem; organic solvent or mixture) [mM] | Median size ([2]; suspension in water, FIG. 4) [μm] | Median size [2, 4] [μm] | d10 [2, 4] [μm] | d90 [2, 4] [μm] | dissolution profile (comparison of curves) [3] | SMILES | median size, manufacturer's specification [1] [μm]
5 |  |  |  | 11.76 | 2.939 | 26.62 |  | COC1=CC(=O)C[C@@H](C)[C@]12Oc1c(Cl)c(OC)cc(OC)c1C2=O [X3, Griseofulvin] | 
6 |  |  |  |  |  |  | essentially similar dissolution curves | COC1=CC(=O)C[C@@H](C)[C@]12Oc1c(Cl)c(OC)cc(OC)c1C2=O [uncoated GF, Griseofulvin] | 
